Results on one compound are retold here after publication PMC11327196, “A phase 1 study to assess the absolute bioavailability, mass balance, pharmacokinetics, metabolism, and excretion of [^14C]-mobocertinib, an oral inhibitor of EGFR exon 20 insertion mutations, in healthy participants” (Investigational New Drugs, 2024).

The data set can be described thus: Period 2 human ADME study: plasma PK after oral solution [14C]-mobocertinib. It is filed as in vivo. As to the method: This was a two-period, open-label, single-dose phase 1 study (NCT03811834) conducted at one clinical site (Celerion, Lincoln, Nebraska, USA) in healthy male participants. The primary objective of Period 1 was to determine the absolute bioavailability of mobocertinib following a single oral dose of 160 mg mobocertinib as capsules and a single intravenous (IV) microdose of 50 µg (~ 2 µCi) [^14C]-mobocertinib. The primary objectives of Period 2 were to (1) assess the cumulative excretion of total radioactivity in urine and feces (mass balance); (2) assess the metabolite profile of mobocertinib in plasma, urine, and feces; and (3) characterize the PK of mobocertinib, AP32960, and AP32914 in plasma, whole blood, and urine, and total radioactivity concentration equivalents in plasma and whole blood following a single oral dose of 160 mg (~ 100 µCi) [^14C]-mobocertinib as an oral solution. A sample size of 6 healthy males was selected without statistical considerations and deemed adequate to meet the study objectives. Furthermore, the sample size was limited based on clinical considerations for human ADME studies and to limit exposure to radioactivity.
After a washout of 8–9 days, participants returned to the clinic for Day − 1 of Period 2. On Day 1 of Period 2, after a fast of ≥ 10 h, participants received a single nominal dose of 160 mg (~ 100 µCi; whole body effective dose of 5.3 mrem for a 70-kg human) [^14C]-mobocertinib as a 70 mL oral solution. The actual doses administered ranged from 161 to 163 mg (92.4 to 93.9 µCi). Participants stayed in the clinic from Day − 1 until a discharge criterion (≥ 80% of the total administered radioactive dose was recovered in urine and feces or excretion of radioactivity in urine and feces combined had declined to ≤ 1% of the total administered dose per day for ≥ 2 consecutive intervals) was met, or up to 10 days postdose. To measure the total radioactivity and concentrations of mobocertinib, AP32960, and AP32914 in whole blood and plasma, 4 blood samples were collected predose, and at 0.5, 1, 2, 3, 4, 5, 6, 8, 12, 24, 36, 48, 72, 96, 120, 144, 168, 192, 216, and 240 h postdose; a fifth blood sample was collected for plasma metabolite profiling at predose and 1, 2, 4, 6, 12, 24, 48, 72, 96, 120, and 168 h postdose. Feces and urine were collected predose (feces within 48 h and urine within 24 h prior to dosing), 0–24 h (urine from 0–12 and 12–24 h), and then at 24-hour intervals up to 240 h postdose or until a discharge criterion was met. […] These 2 participants continued with at-home fecal sample collections. One participant provided fecal samples until Day 13 (264–288 h interval) and one participant provided fecal samples until Day 19 (408–432 h interval), after which they met a discharge criterion.
Plasma, whole blood, and urine samples were assayed for mobocertinib, AP32960, and AP32914 concentrations using liquid chromatography-tandem mass spectrometry (Q2 Solutions, Ithaca, New York, USA). The analytical range for each analyte was 0.250 to 500 ng/mL in whole blood and plasma, and 1.00 to 1000 ng/mL in urine. […] Urine and fecal samples were assayed for total radioactivity following the IV dose of [^14C]-mobocertinib in Period 1, and whole blood, plasma, urine, and fecal samples were assayed for total radioactivity following the oral dose of [^14C]-mobocertinib in Period 2 using liquid scintillation counting (LSC; Celerion, Lincoln, Nebraska, USA; LLOQs: Period 1 urine: 0.115–0.118 ng eq/g, feces: 0.720–0.759 ng eq/g; Period 2 whole blood: 87.3–112 ng eq/g, plasma: 116–132 ng eq/mL, urine: 37.8–46.8 ng eq/g, feces: 110–336 ng eq/g across participants). Urine and fecal samples collected in Period 1 that had total radioactivity concentration equivalents below the LLOQ of the Celerion LSC assay were sent to Pharmaron for measurement by AMS (LLOQ: urine: 0.0000253–0.00111 ng eq/g; feces: 0.000404–0.0278 ng eq/g across participants). The LSC and AMS assays were not cross-validated. […]

Setting [1] is: Period 2, oral solution 160 mg [14C]-mobocertinib, geometric mean (geometric CV%).
Setting [2] is: male, human, Period 2, oral solution 160 mg [14C]-mobocertinib, geometric mean (geometric CV%).

By AUC(0-inf) is commonly meant the area under the concentration-time curve extrapolated to infinity. Read a high AUC(0-inf) as more exposure. By AUC(0-t) is commonly meant exposure summed from dosing to a finite time, without extrapolation to infinity. The low end stands for low exposure, the high end for high exposure. One may read the Cmax as the maximum level reached in the sampled fluid or tissue. Take `C=CC(=O)Nc1cc(Nc2ncc(C(=O)OC(C)C)c(-c3cn(C)c4ccccc34)n2)c(OC)cc1N(C)CCN(C)C` [Mobocertinib]: where the note is “Period 2, oral solution 160 mg [14C]-mobocertinib, exceeds duration of sampling, approximate estimate, geometric mean (geometric CV%)”, the “t1/2z of total radioactivity” value is roughly 281 h. Under setting [1], the CL/F is recorded as 169 (38.4) L/h and the “Molar AUC∞ ratio (analyte vs. total radioactivity)” value was 0.00172 (31.1). In addition, the tmax (Period 2, single oral solution 160 mg (~100 µCi) [14C]-mobocertinib, median (range)) is on record as 6.0 (3.0–6.0) h. Also, under setting [2], the AUC(0-inf) was determined as 956 ng·h/mL, the AUC(0-t) turned out to be 945 ng·h/mL and the peak level (Cmax) was 51 ng/mL. For the setting “male, human, Period 2, oral solution 160 mg [14C]-mobocertinib, geometric mean (geometric CV%), read-out: Vz/F”, the Vd/F is 5560 L. Besides, the half-life (male, human, Period 2, oral solution 160 mg [14C]-mobocertinib, geometric mean (geometric CV%), read-out: t1/2z (converted)) is 22.8 h.
